Laboratory results as given in patent US20060234909A1, “Compositions and methods for increasing drug efficiency” (priority 2003, published 2006).
Primed or numbered codes have the meaning given here. * marks the point of attachment. 3Am‑VBL = vinblastine (VBL) conjugate; ALK(6) = not defined here; PEG(11) = PEG(11) linker; PEG(29) = PEG(29) linker; 10Es = not defined here; PEG(11)″ = PEG11 linker; 3Am = not defined here; Cbz = O=C(OCc1ccccc1)*; Boc = CC(C)(C)OC(=O)*; Piv = CC(C)(C)C(=O)*; VBL = vinblastine; PXL = paclitaxel

Experiments:
tubulin = experiment: Fluorescence-based tubulin polymerization assay (MPA; enhancement for paclitaxel, inhibition for vinblastine); assay type: biochemical
Source text: Drug-linker constructs may further be screened using functional assays predictive of biological activity. […] Tubulin assembly or inhibition thereof may be monitored by fluorescence using the CytoDYNAMIX Screen™ 10 kit available from Cytoskeleton (1830 S. Acoma St., Denver, Colo.). […] Emission is monitored at 405 nm with excitation at 360 nm. […] Tubulin assembly or inhibition may also be monitored by light scattering which is approximated by the apparent absorption at 350 nm. For paclitaxel drug conjugates BSA is employed to prevent aggregation and glycerol, which is a tubulin polymerization enhancer, is omitted from the kit to increase the signal to noise ratio.
The assay kit (#BK011) was purchased from Cytoskeleton (Denver, Colo.). The assays were carried out according to the manufacturer's instructions, except that 1 mg/ml BSA (Sigma #A3059) was included in all assays. […] Parent drugs and conjugates were tested at 0.75, 1.5, 3 and 10 micromolar final concentration and results represent a comparison of conjugate and parent drug curves obtained from the linear range of the dose responses.
(±SD) represent the average of all tests carried out for all lots of a given compound.

HUVEC = experiment: Cytotoxicity assay (monolayer), HUVEC; assay type: cell-based; settings: ML (monolayer), read-out: HUVEC (EC50 Ave) ML
[1] = test system: HT-29 colorectal carcinoma; experiment: Cytotoxicity assay (monolayer), HT-29; assay type: cell-based; settings: HT29, ML (monolayer); read-out: HT29 (EC50 Ave) ML;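 also: monolayer cultures tested in triplicate, compound exposure for three days against DMSO vehicle controls, EC50 fitted from dose-response curves and averaged across all tests and lots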
MCF-7 breast carcinoma = experiment: Cytotoxicity assay (monolayer), MCF-7; assay type: cell-based; settings: MCF7, ML (monolayer); read-out: MCF7 (EC50 Ave) ML;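 also: cells treated 72 h with 6-8 compound doses versus DMSO vehicle controls, EC50 fitted by 4-parameter dose-response curves, averaged across all tests and lots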
[2] = test system: Normal human foreskin fibroblasts (HFF); settings: read-out: HFF (EC50 Ave) ML; HFF, ML (monolayer)
Human Src = target: T1, Human Src (Homo sapiens, UniProt P12931); experiment: Src kinase assay (PKLight ATP utilization, substrate phosphorylation as % of parent peptide); assay type: biochemical
T1 construct: purchased Upstate (Charlottesville, Va.) 14-326
Experimental: Another test may involve monitoring the consumption of ATP. For example, ATP concentrations at time 0 or after 4 hour incubation may be monitored by luciferase reaction (PKLight kit obtained from Cambrex Corporation, One Meadowlands Plaza, East Rutherford, N.J. 07073), which generate a luminescence readout in the presence of ATP. Assays are initiated by mixing a kinase and a peptide in the presence of 40 μM ATP. After 4 hour of incubation at 30° C., PKLight reagent is added and mixed well, and luminescence readout measured. The rate of peptide phosphorylation is then directly related to the rate of decrease in the observed luminescence. Based on the first test, linkers of appropriate lengths and peptides with an effective amount of kinase activity which may be expected to be retained in the drug conjugate may be found.
Human Src (#14-326) and Akt (#14-276) kinases were purchased from Upstate (Charlottesville, Va.). Kinase reactions were carried out in 50 μl kinase reaction cocktail (25 mM Tris-HCl, pH 7.5, 5 μM β-glycerophosphate, 2 mM DTT, 0.1 mM Na3VO4, 10 mM MgCl2, 1 mg/ml BSA, […], 0.5 to 1.0 units enzyme). Substrates (peptide or drug-peptide conjugate in […]) were added (25, 50 and 100 μM) and the reaction was incubated for 2-5 hours at 30° C. PKLight reagent (23 μl) (Cambrex BioSciences, Rockland, Me.) was mixed with […] of the above kinase reaction and ATP utilization relative to no substrate and no ATP controls was determined by measuring luminescence with a SpectraMax Gemini EM plate reader (Molecular Devices, Sunnyvale, Calif.). Peptide substrates for Src and Akt have been described. For examples, see Lou et al. Letters in Peptide Science, 2, 289-296 (1995); Lou et al. Bioorganic & Medicinal Chemistry, 4, 677-682 (1996); Alessi et al. FEBS Letters, 399, 333-338 (1996). Substrate phosphorylation potential was determined from the linear portion of the substrate concentration dose response as a percentage of the activity observed with the parent peptide used for drug conjugation.

MCF-7 cells = settings: read-out: MCF7 (EC50 Ave) SA; MCF7, SA (soft agar)
HT-29 cells = settings: read-out: HT29 (EC50 Ave) SA; HT29, SA (soft agar)

Row | Molecule | Ave. MPA Act. (tubulin) | EC50 (HUVEC) | EC50 [1] | EC50 (MCF-7 breast carcinoma) | EC50 [2] | Average src kinase activity (Human Src) | EC50 (MCF-7 cells) | EC50 (HT-29 cells)
1 | BOC-YIYGSFK(BOC)-PEG(11)-3Am-VBL (N-BOC; BOC side chain; PEG(11); vinblastine conjugate) | B (B=50-80) | > 100 nM | 20 to 100 nM | 20 to 100 nM | > 100 nM | A (A<20) | – | –
2 | H-YIYGSFK-PEG(11)-3Am-VBL (H-YIYGSFK-{PEG(11)-3Am-VBL}; reading uncertain) | B (B=50-80) | > 100 nM | > 100 nM | > 100 nM | 20 to 100 nM | C (C>40) | – | –
3 | Ac-EYIYGSFR-PEG(13)-10Ca-PXL (N-acetyl, PEG13, paclitaxel conjugate) | B (B=50-80) | > 100 nM | > 100 nM | > 100 nM | > 100 nM | B (B=20-40) | – | –
4 | Ac-YIYGSFS-PEG(11)-3Am-VBL (N-acetyl; PEG(11) linker; vinblastine conjugate) | B (B=50-80) | > 100 nM | > 100 nM | > 100 nM | > 100 nM | C (C>40) | – | –
5 | Ac-YIFGSFK(BOC)-PEG(11)-3Am-VBL (Ac-YIFGSFK(Boc)-{PEG(11)″-3Am-VBL}; reading uncertain; also: printed as Ac-YIFGSFK(BOC)-PEG(11)-3Am-VBL) | B (B=50-80) | > 100 nM | > 100 nM | > 100 nM | > 100 nM | B (B=20-40) | – | –
6 | H-YIYGSFK-PEG(29)-3Am-VBL x 2TFA (H-YIYGSFK-{PEG(29)-3Am-VBL}; reading uncertain; also: 2TFA salt) | A (A<50) | > 100 nM | 20 to 100 nM | < 20 nM | 20 to 100 nM | A (A<20) | – | –
7 | BOC-YI(phospho)YGSFK(BOC)-PEG(11)-3Am-VBL (Boc-YIYGSFK(Boc)-{PEG(11)-3Am-VBL}; reading uncertain; also: phospho at I2 as written: I(phospho), printed as BOC-YI(phospho)YGSFK(BOC)-PEG(11)-3Am-VBL) | C (C>80) | > 100 nM | – | > 100 nM | 20 to 100 nM | C (C>40) | – | –
8 | CBz-E(Bzl)YIFGSFK(BOC)-PEG(11)-3Am-VBL | A (A<50) | > 100 nM | > 100 nM | < 20 nM | > 100 nM | A (A<20) | – | –
9 | BOC-GIYWHHY-PEG(29)-3Am-VBL (N-BOC; PEG(29) linker; vinblastine conjugate) | B (B=50-80) | > 100 nM | – | > 100 nM | > 100 nM | A (A<20) | – | –
10 | CH3O(CH2CH2O)3CH2CH2(C═)YIYGSFH-PEG(11)-3Am-VBL (N-methoxy-PEG acyl; PEG(11); vinblastine conjugate) | B (B=50-80) | > 100 nM | > 100 nM | > 100 nM | > 100 nM | C (C>40) | – | –
11 | CH3O(CH2CH2O)3CH2CH2(C═O)YIYGSFS-PEG(11)-3Am-VBL (N-methoxy-PEG acyl; PEG(11); vinblastine conjugate) | C (C>80) | > 100 nM | > 100 nM | > 100 nM | > 100 nM | C (C>40) | – | –
12 | H-YIYGSFK-ALK(6)-10Es-PXL (H-YIYGSFK-{ALK(6)-10Es-PXL}; reading uncertain) | B (B=50-80) | – | > 100 nM | > 100 nM | > 100 nM | C (C>40) | – | –
13 | Ac-YIYGSFH-PEG(11)-3Am-VBL (N-acetyl; PEG(11) linker; vinblastine conjugate) | C (C>80) | > 100 nM | > 100 nM | > 100 nM | > 100 nM | C (C>40) | – | –
14 | Pv-EYIYGSFR-PEG(11)-3Am-VBL (Piv-EYIYGSFR-{PEG(11)-3Am‑VBL}) | C (C>80) | > 100 nM | > 100 nM | > 100 nM | > 100 nM | C (C>40) | – | –
15 | Ac-YIYGSFR-PEG(13)-10Ca-PXL (N-acetyl; PEG(13) linker; paclitaxel conjugate) | B (B=50-80) | > 100 nM | > 100 nM | > 100 nM | > 100 nM | C (C>40) | – | –
16 | CBz-YIYGSFK(CBz)-PEG(11)-3Am-VBL (Cbz-YIYGSFK(Cbz)-{PEG(11)-3Am-VBL}; reading uncertain; also: printed as CBz-YIYGSFK(CBz)-PEG(11)-3Am-VBL) | B (B=50-80) | 20 to 100 nM | > 100 nM | 20 to 100 nM | 20 to 100 nM | A (A<20) | – | –
17 | H-GIYWHHY-PEG(29)-3Am-VBL (H-GIYWHHY-{PEG(29)-3Am-VBL}; reading uncertain) | C (C>80) | > 100 nM | – | > 100 nM | > 100 nM | C (C>40) | – | –
18 | CC(=O)O[C@@]12CO[C@@H]1C[C@H](O)[C@@]1(C)C(=O)[C@H](O)C3=C(C)[C@@H](OC(=O)[C@H](O)[C@@H](NC(=O)c4ccccc4)c4ccccc4)C[C@@](O)([C@@H](OC(=O)c4ccccc4)[C@H]21)C3(C)C [10 Deacetyl Taxol] | – | < 20 nM | < 20 nM | 20 to 100 nM | < 20 nM | – | < 20 nM | < 20 nM
19 | CBz-YIFGSFK-PEG(11)-3Am-VBL (N-CBz; PEG(11) linker; vinblastine conjugate) | B (B=50-80) | > 100 nM | > 100 nM | > 100 nM | > 100 nM | A (A<20) | – | –
20 | Ac-YIFGSFK-PEG(11)-3Am-VBL (N-acetyl; PEG(11) linker; vinblastine conjugate) | B (B=50-80) | > 100 nM | > 100 nM | > 100 nM | > 100 nM | C (C>40) | – | –
21 | CBz-RPRTSSF-PEG(11)-3Am-VBL (N-CBz; PEG(11) linker; vinblastine conjugate) | – | – | < 20 nM | < 20 nM | – | – | 20 to 100 nM | –
22 | BOC-YIYGSFS-PEG(11)-3Am-VBL (N-BOC; PEG(11) linker; vinblastine conjugate) | C (C>80) | > 100 nM | > 100 nM | > 100 nM | > 100 nM | C (C>40) | – | –
23 | H-GIYWHHY-PEG(11)-3Am-VBL (H-GIYWHHY-{PEG(11)-3Am-VBL}; reading uncertain) | B (B=50-80) | > 100 nM | > 100 nM | > 100 nM | > 100 nM | B (B=20-40) | – | –
